Here are results for four compounds from PubChem BioAssay (NCI).

Some test systems named below: DLD-1 colon; DMS 114 small cell lung; DMS 273 small cell lung; HCT-116 colon; HOP-18 NSCLC; KM12 colon; KM20L2 colon; LXFL 529 NSCLC; M19-MEL melanoma; NCI-H23 lung; RXF-631 renal; SF-295 CNS; SNB-78 CNS; XF 498 CNS; NCI/ADR-RES ovarian.
Experiment in all cases: NCI anticancer screen, dose series, 48 h

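Grown in 96-well plates, cells were treated for 48 hours with each compound at five concentrations. Insufficient inhibition: endpoint recorded as highest concentration tested. TGI: concentration producing complete growth inhibition.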

As for `Cc1ccc(S(=O)(=O)N/N=C(\c2nc3ccc(Cl)cc3[nH]c2=O)C(O)c2cccc([N+](=O)[O-])c2)cc1` (stereo not given), the TGI in the experiment on DLD-1 colon, in the experiment on DMS 114 small cell lung, in the experiment with DMS 273 small cell lung, in the experiment with HCT-116 colon, in the experiment with HOP-18 NSCLC and with KM12 colon was more than 100 µM in each case. For the same compound, the TGI with KM20L2 colon, in the experiment with LXFL 529 NSCLC, with M19-MEL melanoma, with NCI-H23 lung, in the experiment on RXF-631 renal and in the experiment with SF-295 CNS was more than 100 µM throughout. Moreover, the TGI in the experiment with SNB-78 CNS and with XF 498 CNS was more than 100 µM throughout.
Consider `O=c1[nH]c(=O)n(C2OC(COP(=O)(O)OP(=O)(O)OC3OC(CO)C(O)C(O)C3O)C(O)C2O)cc1F` (stereo not given), for which the TGI is more than 100 µM with DLD-1 colon; more than 100 µM in the experiment on DMS 114 small cell lung; 1.23 µM with HCT-116 colon; more than 100 µM with HOP-18 NSCLC; 10.7 µM in the experiment with KM12 colon; more than 100 µM with KM20L2 colon. Besides, the TGI in the experiment with LXFL 529 NSCLC is more than 100 µM; with M19-MEL melanoma it was 59.4 µM; in the experiment with NCI-H23 lung, more than 31.5 µM; in the experiment with RXF-631 renal, more than 100 µM; in the experiment on SF-295 CNS it was more than 100 µM; with SNB-78 CNS it was more than 100 µM. The TGI with XF 498 CNS is 16.1 µM.
As to `CCCN(CCCC(NC(C)=O)C(=O)NCc1ccccc1)C(=O)N(CCCl)N=O` (stereo not given), the TGI came out at 43.1 µM in the experiment on DLD-1 colon; 65.7 µM with DMS 114 small cell lung; 24.6 µM in the experiment with DMS 273 small cell lung; 29 µM in the experiment with HCT-116 colon; 64.7 µM in the experiment on HOP-18 NSCLC; 42.3 µM in the experiment on KM12 colon. For the same compound, the TGI in the experiment on KM20L2 colon is 46.7 µM; with LXFL 529 NSCLC it was 34 µM; with M19-MEL melanoma, 28.1 µM; in the experiment with NCI-H23 lung, 22.9 µM; in the experiment with NCI/ADR-RES ovarian, more than 100 µM; with RXF-631 renal, more than 77.6 µM. Also, the TGI came to 43.3 µM with SF-295 CNS, 71 µM in the experiment on SNB-78 CNS and 30.3 µM with XF 498 CNS.
Turning to `CCOC(=O)C1(C/C=C(/C)Cl)CCCC1=O` (stereo not given), the TGI in the experiment on DLD-1 colon, in the experiment on DMS 114 small cell lung, with DMS 273 small cell lung, in the experiment with HCT-116 colon, with HOP-18 NSCLC and in the experiment on KM12 colon was more than 100 µM in each case. Also, the TGI in the experiment on KM20L2 colon, in the experiment on LXFL 529 NSCLC, with M19-MEL melanoma, in the experiment with NCI-H23 lung, with RXF-631 renal and with SF-295 CNS was more than 100 µM in each case. In the experiment on XF 498 CNS, the TGI is more than 100 µM.
